Data as given in paper PMC6747088, “THP-1 Cells and Pro-Inflammatory Cytokine Production: An In Vitro Tool for Functional Characterization of NOD1/NOD2 Antagonists” (International Journal of Molecular Sciences, 2019).

Assays:
NOD2 [1] = molecular target: T1, NOD2 (Homo sapiens, UniProt Q9HC29); assay: MDP (NOD2 agonist)-induced IL-8 secretion from THP-1 cells; format: cell-based; details: 1 h pretreatment, MDP 10 µM, 20 h, read-out: IC50 (NOD2), inhibition of IL-8 release
T1 construct: THP-1 cells also express high levels of native functional NOD1 and NOD2 and respond to NOD stimulation by IL-8 secretion; endogenous in cells; host or cells: THP-1 cells (Istituto Zooprofilattico di Brescia)
Procedure: (§1) For all experiments, THP-1 cells (Istituto Zooprofilattico di Brescia, Brescia, Italy) were diluted to 10^6 cells/mL in RPMI 1640 containing 2 mM L-glutamine, 0.1 mg/mL streptomycin, 100 IU/mL penicillin, 50 μM 2-mercaptoethanol, and supplemented with 10% heat-inactivated fetal calf serum (media) and cultured at 37 °C in 5% CO2. The experiments were carried out on passages 3–12. To evaluate IL-8 and TNF-α production, cultures were set up in 24-well culture plates containing 500 μL of cells. They were pretreated with selected NOD antagonists at increasing concentrations for 1 h before the addition of either MDP or C12-iE-DAP (both at 10 µM) and then incubated for 20 h. Each concentration was tested in duplicate, and untreated cells were exposed to DMSO, which represented the vehicle control (not exceeding 0.2% final concentration). In synergy studies, cells were additionally stimulated with lipopolysaccharide (LPS, from Escherichia coli serotype 0127:B8, Sigma) at a final concentration of 1–10 ng/mL, as indicated in the figure legends. Cell-free supernatants were collected at 20 h by centrifugation at 3000 rpm for 5 min and stored at −80 °C.
(§2) IL-8 and TNF-α release from THP-1 cells were measured in cell-free supernatants obtained by centrifugation at 3000 rpm for 5 min and stored at −80 °C until measurement. IL-8 and TNF-α production were assessed by specific sandwich ELISA (Immunotools, Friesoythe, Germany; eBioScience/R&D Systems, Minneapolis, MN, USA). Results are expressed in pg/mL. The limit of detection was 15.6 pg/mL for IL-8 and 4 pg/mL for TNF-α.
All experiments were performed at least three times, with average values expressed as means ± standard deviation (SD). Statistical analyses were performed using GraphPad Prism 6 (La Jolla, CA, USA). Statistical significance was determined either with the Mann-Whitney or Kruskal-Wallis followed by a post hoc Dunn’s multiple comparison test, as indicated in the figure legends. Differences were considered nonsignificant for p > 0.05, significant (*) for p < 0.05, very significant (**) for p < 0.01 and extremely significant (***) for p < 0.001. IC50 values of NOD1/2 inhibition were calculated by a nonlinear regression model using GraphPad Prism 6 software.

NOD2 [2] = details: reporter assay, NOD-overexpressing HEK cells; cited from earlier work
NOD1 [3] = details: reporter assay, NOD-overexpressing HEK cells; cited from earlier work
NOD1 [4] = molecular target: T2, NOD1 (Homo sapiens, UniProt Q9Y239); assay: C12-iE-DAP (NOD1 agonist)-induced IL-8 secretion from THP-1 cells; format: cell-based; details: 1 h pretreatment, C12-iE-DAP 10 µM, 20 h, read-out: IC50 (NOD1), inhibition of IL-8 release
T2 construct: THP-1 cells also express high levels of native functional NOD1 and NOD2 and respond to NOD stimulation by IL-8 secretion; endogenous in cells; host or cells: THP-1 cells (Istituto Zooprofilattico di Brescia)
T2 sequence (Q9Y239 1-953): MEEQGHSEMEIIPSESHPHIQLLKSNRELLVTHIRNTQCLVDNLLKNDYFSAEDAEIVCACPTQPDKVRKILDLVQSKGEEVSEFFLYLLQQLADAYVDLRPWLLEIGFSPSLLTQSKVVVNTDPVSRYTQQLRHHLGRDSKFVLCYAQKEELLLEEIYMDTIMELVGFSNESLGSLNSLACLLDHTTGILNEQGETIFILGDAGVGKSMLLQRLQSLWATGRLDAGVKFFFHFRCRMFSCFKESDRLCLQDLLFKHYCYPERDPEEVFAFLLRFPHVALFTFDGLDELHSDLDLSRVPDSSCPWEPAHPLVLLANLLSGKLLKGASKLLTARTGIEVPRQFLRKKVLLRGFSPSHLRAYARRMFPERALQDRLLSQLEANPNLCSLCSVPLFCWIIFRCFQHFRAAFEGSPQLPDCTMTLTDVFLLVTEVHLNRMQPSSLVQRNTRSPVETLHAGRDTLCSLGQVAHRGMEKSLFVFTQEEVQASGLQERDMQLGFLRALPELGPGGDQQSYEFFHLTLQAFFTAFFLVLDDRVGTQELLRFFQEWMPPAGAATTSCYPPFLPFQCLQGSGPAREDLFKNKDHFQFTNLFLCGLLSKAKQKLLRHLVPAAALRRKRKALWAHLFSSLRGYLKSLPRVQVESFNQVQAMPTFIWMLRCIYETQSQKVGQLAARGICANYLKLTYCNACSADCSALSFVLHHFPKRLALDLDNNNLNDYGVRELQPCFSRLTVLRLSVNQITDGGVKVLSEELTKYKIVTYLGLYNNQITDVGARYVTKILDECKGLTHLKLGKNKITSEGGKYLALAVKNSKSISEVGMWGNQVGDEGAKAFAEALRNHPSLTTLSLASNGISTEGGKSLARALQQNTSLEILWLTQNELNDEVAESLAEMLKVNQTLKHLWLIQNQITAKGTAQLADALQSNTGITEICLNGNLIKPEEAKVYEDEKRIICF
Procedure: For all experiments, THP-1 cells (Istituto Zooprofilattico di Brescia, Brescia, Italy) were diluted to 10^6 cells/mL in RPMI 1640 containing 2 mM L-glutamine, 0.1 mg/mL streptomycin, 100 IU/mL penicillin, 50 μM 2-mercaptoethanol, and supplemented with 10% heat-inactivated fetal calf serum (media) and cultured at 37 °C in 5% CO2. The experiments were carried out on passages 3–12. To evaluate IL-8 and TNF-α production, cultures were set up in 24-well culture plates containing 500 μL of cells. They were pretreated with selected NOD antagonists at increasing concentrations for 1 h before the addition of either MDP or C12-iE-DAP (both at 10 µM) and then incubated for 20 h. Each concentration was tested in duplicate, and untreated cells were exposed to DMSO, which represented the vehicle control (not exceeding 0.2% final concentration). […] Cell-free supernatants were collected at 20 h by centrifugation at 3000 rpm for 5 min and stored at −80 °C.

THP-1 cells [5] = assay: LDH leakage cytotoxicity in THP-1 cells; format: cell-based, human; details: 20 h
Procedure: Prior to investigating the effects of selected NOD antagonists on cytokine production, their potential cytotoxicity for THP-1 cells was assessed. Cell viability was assessed by leakage of LDH from damaged cells. LDH is a well-known indicator of cell membrane integrity and cell viability. Cells were treated for 20 h with the compound of interest at concentrations of up to 50 µM. LDH activity was determined in cell-free supernatants using a commercially available colorimetric kit (Takara Bio Inc., Kusatsu, Japan). Results are expressed as OD.

NOD1/2–TLR4 synergy = assay: NOD1/2–TLR4 synergy: TNF-α release from co-stimulated THP-1 cells; format: cell-based, human; details: antagonist 10 µM 1 h, NOD agonist 10 µM + LPS 1 ng/mL, 20 h
Procedure: Figure 5 Effect of selected NOD1/NOD2 antagonists on NOD1/2–TLR4 synergy. The THP-1 cells were preincubated for 1 h with NOD antagonists (at 10 µM) before being stimulated with either C12-iE-DAP or MDP (both at 10 µM) and 1 ng/mL LPS for 20 h, followed by determination of TNF-α release in the supernatant. Columns represent means of duplicates ± SD of three independent experiments. * p < 0.05, ** p < 0.01 and *** p < 0.001 vs. MDP/LPS- or C12-iE-DAP/LPS-treated cells (Kruskal-Wallis test and post hoc Dunn’s multiple comparison test).
For all experiments, THP-1 cells (Istituto Zooprofilattico di Brescia, Brescia, Italy) were diluted to 10^6 cells/mL in RPMI 1640 containing 2 mM L-glutamine, 0.1 mg/mL streptomycin, 100 IU/mL penicillin, 50 μM 2-mercaptoethanol, and supplemented with 10% heat-inactivated fetal calf serum (media) and cultured at 37 °C in 5% CO2. The experiments were carried out on passages 3–12. To evaluate IL-8 and TNF-α production, cultures were set up in 24-well culture plates containing 500 μL of cells. […]
as §2, with “Results are expressed in pg/mL. The limit of detection was 15.6 pg/mL for IL-8 and 4 pg/mL for TNF-α.” left out

THP-1 cells [6] = assay: IL-8 and TNF-α release from THP-1 cells treated with the compound alone or with LPS; format: cell-based, human; details: 20 h; for TNF-α release from naive THP-1 cells: agonist alone; for IL-8 release from naive THP-1 cells: MDP 2–200 µM, C12-iE-DAP 2–50 µM; for effect on LPS-induced TNF-α production: agonist 10 µM in combination with 1 ng/mL LPS
Procedure: THP-1 cells represent a convenient, robust, and reproducible alternative, which enables intra-assay comparison. A consistent protocol is of key importance to evaluate the compounds in a reproducible and unbiased manner. […] Recognition of an NOD1/NOD2 agonist triggers a signaling pathway leading to the activation of NF-κB and the production of pro-inflammatory cytokines (e.g., TNF-α, IL-1β, IL-6, IL-8). To define the optimal experimental conditions, preliminary experiments were conducted with C12-iE-DAP (lauroyl-γ-D-glutamyl-meso-diaminopimelic acid), an acylated derivative of iE-DAP, as a reference NOD1 agonist, and MDP as a NOD2 agonist. For isolated stimulation of NOD2 and NOD1 receptors, increasing concentrations of MDP (2–200 µM) and C12-iE-DAP (2–50 µM) were used, and the exposure time of 20 h was chosen based on previous experiments using THP-1 cells.
Figure 1 Dose-dependent effect of NOD1/NOD2 agonists on IL-8 (A) and TNF-α (B) secretion from THP-1 cells. IL-8 and TNF-α release from THP-1 cells were measured following 20 h treatment with increasing concentrations (up to 200 µM) of either C12-iE-DAP (NOD1 agonist) or MDP (NOD2 agonist). Columns represent means of duplicates ± SD of three independent experiments; * p < 0.05 vs. CTRL (Mann–Whitney test). Synergy of NOD1/NOD2 agonists and LPS (TLR4 agonist) on IL-8 (C) and TNF-α (D) secretion. IL-8 and TNF-α release from THP-1 cells were measured following 20 h treatment with either C12-iE-DAP or MDP, both at 2 and 10 µM, in the presence or absence of increasing concentrations of LPS (1 or 10 ng/mL). Columns represent means of duplicates ± SD of three independent experiments; * p < 0.05 vs. CTRL (Mann–Whitney test).
as §1, §2

T1 sequence (Q9HC29 whole entry): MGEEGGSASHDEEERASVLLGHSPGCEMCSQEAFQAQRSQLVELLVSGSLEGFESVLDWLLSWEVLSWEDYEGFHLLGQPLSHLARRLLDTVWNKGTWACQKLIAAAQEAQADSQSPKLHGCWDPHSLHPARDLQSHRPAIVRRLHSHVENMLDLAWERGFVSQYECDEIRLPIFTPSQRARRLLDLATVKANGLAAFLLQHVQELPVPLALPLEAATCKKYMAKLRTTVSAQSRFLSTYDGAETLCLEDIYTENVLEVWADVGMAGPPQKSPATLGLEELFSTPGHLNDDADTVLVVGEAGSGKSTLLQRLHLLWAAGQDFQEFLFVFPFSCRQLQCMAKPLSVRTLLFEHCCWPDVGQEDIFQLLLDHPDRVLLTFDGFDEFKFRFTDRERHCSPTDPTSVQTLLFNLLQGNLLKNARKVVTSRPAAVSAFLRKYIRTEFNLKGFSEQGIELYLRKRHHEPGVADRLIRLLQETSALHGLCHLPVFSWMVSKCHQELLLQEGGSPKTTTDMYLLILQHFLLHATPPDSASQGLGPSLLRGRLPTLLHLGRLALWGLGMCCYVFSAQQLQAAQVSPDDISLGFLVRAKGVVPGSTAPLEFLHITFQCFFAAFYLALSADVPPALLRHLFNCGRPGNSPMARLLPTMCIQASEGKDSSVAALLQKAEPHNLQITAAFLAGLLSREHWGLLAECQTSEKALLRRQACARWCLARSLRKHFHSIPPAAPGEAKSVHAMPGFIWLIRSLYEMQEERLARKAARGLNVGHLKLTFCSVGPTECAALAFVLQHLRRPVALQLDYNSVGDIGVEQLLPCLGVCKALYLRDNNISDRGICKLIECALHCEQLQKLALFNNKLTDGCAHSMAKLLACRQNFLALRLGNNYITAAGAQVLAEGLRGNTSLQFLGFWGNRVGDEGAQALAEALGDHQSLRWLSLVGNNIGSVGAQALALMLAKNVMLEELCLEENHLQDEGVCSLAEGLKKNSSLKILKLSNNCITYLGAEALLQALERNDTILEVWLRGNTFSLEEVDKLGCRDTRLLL

| SMILES | IC50 (NOD2 [1]) [µM] | IC50 (NOD1 [4]) [µM] | IC50 (NOD2 [2]) [µM] | IC50 (NOD1 [3]) [µM] | concentrations showing cytotoxicity (LDH leakage) (THP-1 cells [5]) [µM] | effect on TNF-α release from co-stimulated cells (NOD1/2–TLR4 synergy) | TNF-α release from naive THP-1 cells (THP-1 cells [6]) | IL-8 release from naive THP-1 cells (THP-1 cells [6]) | effect on LPS-induced TNF-α production (THP-1 cells [6]) |
| --- | --- | --- | --- | --- | --- | --- | --- | --- | --- |
| CCCCCCCCCCCC(=O)N[C@H](CCC(=O)N[C@@H](CCC[C@@H](N)C(=O)O)C(=O)O)C(=O)O [C12-iE-DAP, lauroyl-γ-D-glutamyl-meso-diaminopimelic acid] | – | – | – | – | – | – | neither MDP nor C12-iE-DAP produced substantial TNF-α release | dose-dependent increase in IL-8 release | significantly potentiated the production of TNF-α |
| CC(=O)N[C@H]1C(O)O[C@H](CO)[C@@H](O)[C@@H]1O[C@H](C)C(=O)N[C@@H](C)C(=O)N[C@H](CCC(=O)O)C(N)=O (mixture of isomers) [MDP, muramyl dipeptide] | – | – | – | – | – | – | neither MDP nor C12-iE-DAP produced substantial TNF-α release | dose-dependent increase in IL-8 release | significantly potentiated the production of TNF-α |

Continued, in another order:

| IC50 (NOD2 [1]) [µM] | IC50 (NOD1 [4]) [µM] | SMILES | IC50 (NOD2 [2]) [µM] | IC50 (NOD1 [3]) [µM] | concentrations showing cytotoxicity (LDH leakage) (THP-1 cells [5]) [µM] | effect on TNF-α release from co-stimulated cells (NOD1/2–TLR4 synergy) | TNF-α release from naive THP-1 cells (THP-1 cells [6]) | IL-8 release from naive THP-1 cells (THP-1 cells [6]) | effect on LPS-induced TNF-α production (THP-1 cells [6]) |
| --- | --- | --- | --- | --- | --- | --- | --- | --- | --- |
| 32.2 ± 5.16 | 10.5 ± 1.32 | C/C=C/Cn1c(=O)c2[nH]c(SCCCc3ccccc3)nc2n(C)c1=O [ML146] | 12.9 | 4.35 | – | – | – | – | – |
| 1.57 ± 0.15 | > 50 | O=C(Cn1c(CCNC(=O)c2ccccc2)nc2ccccc21)Nc1ccc2c(c1)CCC2 [GSK669] | 3.2 | > 50 | ≥ 10 | reduced TNF-α release to the level induced by the TLR4 agonist alone | – | – | – |
| 14.4 ± 1.97 | 27.5 ± 6.85 | CCOC(=O)c1cc2ccccc2n1S(=O)(=O)c1ccc(C)cc1 [SZA-39] | 6.45 | 5.74 | – | – | – | – | – |
| > 50 | – | Cc1ccc(S(=O)(=O)n2c(N)nc3ccccc32)cc1 [ML130] | 54.9 | – | – | – | – | – | – |
